Measurements published in patent US20090270394A1, “CYCLYLAMINE DERIVATIVES AS CALCIUM CHANNEL BLOCKERS” (priority 2008, published 2009).
pIC50: −log10 of the molar value.

Molecular target: T1, Human Cav2.2 channels (Homo sapiens, UniProt Q00975)
T1 construct: expressed in transfected cells
Test: Fluorescent assay for Cav2.2 channels using potassium depolarization to initiate channel opening
Assay type: cell-based
Settings: for inhibition at 10 µM: read-out: Cav 2.2 Activity % Inh at 10 μM; for inhibition at 30 µM: read-out: Cav 2.2 Activity % Inh at 30 μM; for pIC50: 30 mM K (block of open and inactivated channels), read-out: Cav 2.2 Activity IC50 at 30 mM K
Text: Human Cav2.2 channels were stably expressed in HEK293 cells along with alpha2-delta and beta subunits of voltage-gated calcium channels. An inwardly rectifying potassium channel (Kir2.3) was also expressed in these cells to allow more precise control of the cell membrane potential by extracellular potassium concentration. At low bath potassium concentration, the membrane potential is relatively negative, and is depolarized as the bath potassium concentration is raised. In this way, the bath potassium concentration can be used to regulate the voltage-dependent conformations of the channels. […] After the incubation period, Cav2.2 channel opening is triggered by addition of higher concentration of potassium (70 mM final concentration) to further depolarize the cell. The degree of state-dependent block can be estimated from the inhibitory potency of compounds after incubation in different potassium concentrations.
Calcium influx through Cav2.2 channels is determined using a calcium sensitive fluorescent dye in combination with a fluorescent plate reader. Fluorescent changes were measured with either a VIPR (Aurora Instruments) or FLIPR (Molecular Devices) plate reader.
• 1. Seed cells in Poly-D-Lysine Coated 96 or 384-well plate and keep in a 37° C.-10% CO2 incubator overnight • 2. […] Incubate in the dark at 25° C. for 60-70 min • 5. Remove dye, wash cells with 0.1 mL (96-well plate) or 0.06 mL (384-well plate) of 4, 12, 25, or 30 mM Potassium Pre-polarization Buffer (PPB) • 6. […] Incubate in the dark at 25° C. for 30 min • 8. Read cell plate on VIPR instrument, Excitation=480 nm, Emission=535 nm • 9. With VIPR continuously reading, add 0.1 mL (96-well plate) or 0.03 mL (384-well plate) of Depolarization Buffer (DB), which is 2× the final assay concentration, to the cell plate.

T1 sequence (Q00975 whole entry): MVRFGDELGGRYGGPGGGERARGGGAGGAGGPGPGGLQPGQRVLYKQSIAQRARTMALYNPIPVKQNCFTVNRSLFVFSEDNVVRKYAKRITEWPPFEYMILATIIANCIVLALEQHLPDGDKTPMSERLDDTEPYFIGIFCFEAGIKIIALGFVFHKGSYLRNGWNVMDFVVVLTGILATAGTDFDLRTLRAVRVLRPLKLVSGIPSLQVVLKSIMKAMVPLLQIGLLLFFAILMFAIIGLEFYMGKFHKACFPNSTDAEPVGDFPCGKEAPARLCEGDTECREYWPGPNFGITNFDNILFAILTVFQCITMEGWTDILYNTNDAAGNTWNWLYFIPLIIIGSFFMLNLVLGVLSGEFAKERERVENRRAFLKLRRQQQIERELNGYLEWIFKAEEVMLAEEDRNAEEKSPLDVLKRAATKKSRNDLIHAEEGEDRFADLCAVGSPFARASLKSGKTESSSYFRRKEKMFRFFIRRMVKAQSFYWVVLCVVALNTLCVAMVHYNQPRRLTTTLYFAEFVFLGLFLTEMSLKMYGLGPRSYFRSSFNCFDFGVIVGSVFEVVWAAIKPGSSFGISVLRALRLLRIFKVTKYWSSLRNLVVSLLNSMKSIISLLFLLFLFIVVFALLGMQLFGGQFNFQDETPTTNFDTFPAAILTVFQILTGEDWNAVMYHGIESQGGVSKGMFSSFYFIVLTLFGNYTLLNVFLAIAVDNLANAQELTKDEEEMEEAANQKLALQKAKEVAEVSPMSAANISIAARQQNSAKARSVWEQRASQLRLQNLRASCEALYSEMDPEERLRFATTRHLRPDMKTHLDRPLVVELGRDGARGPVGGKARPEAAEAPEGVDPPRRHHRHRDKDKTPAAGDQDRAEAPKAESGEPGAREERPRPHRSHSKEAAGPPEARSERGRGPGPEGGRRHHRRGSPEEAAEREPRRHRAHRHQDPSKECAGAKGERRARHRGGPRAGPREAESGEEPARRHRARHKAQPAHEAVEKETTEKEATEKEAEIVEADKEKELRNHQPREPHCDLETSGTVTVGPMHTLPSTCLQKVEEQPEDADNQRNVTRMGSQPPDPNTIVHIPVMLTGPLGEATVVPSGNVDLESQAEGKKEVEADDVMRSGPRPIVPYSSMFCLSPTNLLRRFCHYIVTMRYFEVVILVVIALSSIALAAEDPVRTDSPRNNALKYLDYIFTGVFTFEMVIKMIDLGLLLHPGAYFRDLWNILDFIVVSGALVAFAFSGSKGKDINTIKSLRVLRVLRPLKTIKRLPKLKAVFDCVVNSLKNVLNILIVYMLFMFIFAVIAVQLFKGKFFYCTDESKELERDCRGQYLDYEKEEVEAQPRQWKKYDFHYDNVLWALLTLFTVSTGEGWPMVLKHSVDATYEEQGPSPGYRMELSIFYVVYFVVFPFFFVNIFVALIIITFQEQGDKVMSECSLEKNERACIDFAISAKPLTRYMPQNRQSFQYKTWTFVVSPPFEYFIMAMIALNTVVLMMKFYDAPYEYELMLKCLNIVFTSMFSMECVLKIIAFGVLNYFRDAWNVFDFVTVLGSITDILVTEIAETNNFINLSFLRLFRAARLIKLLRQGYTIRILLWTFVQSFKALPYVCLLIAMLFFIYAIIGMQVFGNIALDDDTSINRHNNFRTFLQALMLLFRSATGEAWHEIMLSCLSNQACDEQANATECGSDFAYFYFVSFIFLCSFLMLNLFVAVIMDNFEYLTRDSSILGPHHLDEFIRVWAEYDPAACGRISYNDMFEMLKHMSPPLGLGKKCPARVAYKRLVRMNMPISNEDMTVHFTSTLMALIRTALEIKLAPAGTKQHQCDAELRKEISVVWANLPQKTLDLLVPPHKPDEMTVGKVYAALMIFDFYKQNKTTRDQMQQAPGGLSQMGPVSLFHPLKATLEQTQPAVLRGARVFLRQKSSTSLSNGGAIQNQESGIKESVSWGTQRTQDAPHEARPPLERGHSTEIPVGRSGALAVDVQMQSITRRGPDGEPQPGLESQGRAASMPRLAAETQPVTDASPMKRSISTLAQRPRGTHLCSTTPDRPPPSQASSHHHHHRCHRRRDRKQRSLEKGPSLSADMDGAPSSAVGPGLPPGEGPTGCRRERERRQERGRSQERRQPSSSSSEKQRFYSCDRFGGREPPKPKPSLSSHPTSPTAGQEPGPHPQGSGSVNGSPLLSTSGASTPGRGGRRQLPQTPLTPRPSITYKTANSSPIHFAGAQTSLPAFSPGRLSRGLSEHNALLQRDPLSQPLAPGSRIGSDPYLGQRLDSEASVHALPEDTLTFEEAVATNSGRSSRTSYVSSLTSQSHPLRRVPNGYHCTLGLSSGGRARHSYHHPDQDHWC
T1 sequence (P54289 25-1103 partner): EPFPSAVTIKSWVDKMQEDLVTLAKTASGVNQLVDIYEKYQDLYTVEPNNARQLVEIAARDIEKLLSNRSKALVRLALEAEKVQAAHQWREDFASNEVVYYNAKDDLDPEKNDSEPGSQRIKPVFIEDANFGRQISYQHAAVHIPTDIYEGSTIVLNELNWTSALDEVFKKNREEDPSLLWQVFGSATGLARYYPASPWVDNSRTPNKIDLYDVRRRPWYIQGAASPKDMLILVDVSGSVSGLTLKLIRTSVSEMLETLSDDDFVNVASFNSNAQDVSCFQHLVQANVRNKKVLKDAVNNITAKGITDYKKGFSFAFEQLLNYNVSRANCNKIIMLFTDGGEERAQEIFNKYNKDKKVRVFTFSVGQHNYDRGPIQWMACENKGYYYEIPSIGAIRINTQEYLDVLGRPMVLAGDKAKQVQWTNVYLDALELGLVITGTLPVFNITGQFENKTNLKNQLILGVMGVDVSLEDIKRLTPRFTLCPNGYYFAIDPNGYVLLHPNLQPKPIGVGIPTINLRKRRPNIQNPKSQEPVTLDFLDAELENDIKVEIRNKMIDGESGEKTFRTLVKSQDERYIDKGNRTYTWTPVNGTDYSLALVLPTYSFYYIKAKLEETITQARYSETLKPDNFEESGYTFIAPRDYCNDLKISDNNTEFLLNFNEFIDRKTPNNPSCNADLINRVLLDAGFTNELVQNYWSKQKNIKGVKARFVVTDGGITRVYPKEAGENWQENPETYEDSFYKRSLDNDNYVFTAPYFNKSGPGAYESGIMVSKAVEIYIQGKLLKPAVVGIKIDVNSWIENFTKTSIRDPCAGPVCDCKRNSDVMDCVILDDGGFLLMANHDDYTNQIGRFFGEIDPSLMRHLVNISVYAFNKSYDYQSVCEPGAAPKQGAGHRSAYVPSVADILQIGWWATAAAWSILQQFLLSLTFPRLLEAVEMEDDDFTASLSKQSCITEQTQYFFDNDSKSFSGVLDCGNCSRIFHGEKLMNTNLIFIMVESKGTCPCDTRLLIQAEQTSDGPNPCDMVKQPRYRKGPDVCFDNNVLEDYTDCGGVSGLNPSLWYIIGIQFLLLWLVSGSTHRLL
T1 sequence (P54284 whole entry partner): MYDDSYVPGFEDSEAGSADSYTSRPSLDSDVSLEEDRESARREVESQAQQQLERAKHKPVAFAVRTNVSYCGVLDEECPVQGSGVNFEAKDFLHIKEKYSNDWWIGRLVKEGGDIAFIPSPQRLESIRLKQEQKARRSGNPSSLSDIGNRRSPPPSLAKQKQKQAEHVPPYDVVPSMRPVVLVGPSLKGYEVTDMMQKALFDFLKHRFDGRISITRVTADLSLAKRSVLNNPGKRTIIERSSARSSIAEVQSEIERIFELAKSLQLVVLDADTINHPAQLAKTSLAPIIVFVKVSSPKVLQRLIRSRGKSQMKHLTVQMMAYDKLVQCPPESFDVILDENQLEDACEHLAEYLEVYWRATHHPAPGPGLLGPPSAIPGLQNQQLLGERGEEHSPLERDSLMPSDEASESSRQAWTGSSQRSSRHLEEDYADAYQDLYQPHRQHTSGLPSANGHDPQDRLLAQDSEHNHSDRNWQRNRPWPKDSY

Compound | inhibition at 10 µM (10 μM compound) | inhibition at 30 µM (30 μM compound) | pIC50 | Cav 2.2 Activity % Inh at 10 μM (10 μM compound) | Cav 2.2 Activity % Inh at 30 μM (30 μM compound)
CC(C)(C)c1cc(C(=O)NC2(C(=O)NCCCN3CCOCC3)CCCCC2)cc(C(C)(C)C)c1 [Compound 102, 3,5-di-tert-butyl-N-(1-(3-morpholinopropylcarbamoyl)cyclohexyl)benzamide] | – | – | 6.60 | – | –
COc1c(C(C)(C)C)cc(C(=O)NC2(C(=O)N3CCN(Cc4ccccc4)CC3)CCCCC2)cc1C(C)(C)C [Compound 83, N-(1-(4-benzylpiperazine-1-carbonyl)cyclohexyl)-3,5-di-tert-butyl-4-methoxybenzamide] | 97.2% | 100% | 6.87 | – | –
COc1ccc(CNC(=O)C2(NC(=O)Cc3cc(C(C)(C)C)c(OC)c(C(C)(C)C)c3)CCCCC2)cc1 [Compound 18, 1-(2-(3,5-di-tert-butyl-4-methoxyphenyl)acetamido)-N-(4-methoxybenzyl)cyclohexanecarboxamide] | 40.7% | 34.5% | – | – | –
CC(C)(C)c1cc(C(=O)NC2(C(=O)NCc3ccc(S(C)(=O)=O)cc3)CCCCC2)cc(C(C)(C)C)n1 [Compound 106, 2,6-di-tert-butyl-N-(1-(4-(methylsulfonyl)benzylcarbamoyl)cyclohexyl)isonicotinamide] | – | – | 6.50 | – | –
CC(C)(C)c1cc(C(=O)NC2(C(=O)NCc3cccc(C(F)(F)F)c3)Cc3ccccc3C2)cc(C(C)(C)C)n1 [Compound 54, 2,6-di-tert-butyl-N-(2-(3-(trifluoromethyl)benzylcarbamoyl)-2,3-dihydro-1H-inden-2-yl)isonicotinamide] | 46.2% | 68.4% | – | – | –
CC(C)(C)c1cc(C(=O)NC2(C(=O)Nc3ccccc3)CCCCC2)cc(C(C)(C)C)c1O [Compound 111, 3,5-di-tert-butyl-4-hydroxy-N-(1-(phenylcarbamoyl)cyclohexyl)benzamide] | 71.8% | 106% | 6.26 | – | –
CC(C)(C)c1cc(C(=O)NC2(C(=O)NCc3ccccc3)CCCC2)cc(C(C)(C)C)c1 [Compound 36, N-(1-(benzylcarbamoyl)cyclopentyl)-3,5-di-tert-butylbenzamide] | 92% | 96.4% | 6.60 | – | –
1-(2,6-di-tert-butylisonicotinimidamido)-N-((5-methylisoxazol-3-yl)methyl)cyclopentanecarboxamide [Compound 90] | – | – | 7.11 | 90.95% | 98.53%
CC(C)(C)c1cc(C(=O)NC2(C(=O)NCc3ccccc3)CCCCC2)cc(C(C)(C)C)n1 [Compound 56, N-(1-(benzylcarbamoyl)cyclohexyl)-2,6-di-tert-butylisonicotinamide] | 84.4% | 92.6% | 6.49 | – | –
CC(C)(C)c1cc(C(=O)NC2(C(=O)NCCCN3CCOCC3)CCCCC2)cc(C(C)(C)C)n1 [Compound 99, 2,6-di-tert-butyl-N-(1-(3-morpholinopropylcarbamoyl)cyclohexyl)isonicotinamide] | – | – | 6.15 | – | –
CC(C)(C)c1cc(C(=O)NC2(C(=O)NCc3nccs3)CC2)cc(C(C)(C)C)c1O [Compound 1, 3,5-di-tert-butyl-4-hydroxy-N-(1-(thiazol-2-ylmethylcarbamoyl)cyclopropyl)benzamide] | 95.2% | 104% | 5.92 | – | –
CN(C)c1ccccc1CNC(=O)C1(NC(=O)c2cc(C(C)(C)C)nc(C(C)(C)C)c2)CCOCC1 [Compound 26, 2,6-di-tert-butyl-N-(4-(2-(dimethylamino)benzylcarbamoyl)tetrahydro-2H-pyran-4-yl)isonicotinamide] | 49% | – | – | – | –
COc1c(C(C)(C)C)cc(C(=O)NC2(C(=O)NCc3cnc(C)cn3)CCN(C(=O)OC(C)(C)C)CC2)cc1C(C)(C)C [Compound 22, tert-butyl 4-(3,5-di-tert-butyl-4-methoxybenzamido)-4-((5-methylpyrazin-2-yl)methylcarbamoyl)piperidine-1-carboxylate] | 95.1% | – | 6.40 | – | –
Cc1cc(CNC(=O)C2(NC(=O)c3cc(C(C)(C)C)c(O)c(C(C)(C)C)c3)CCCCC2)nn1C [Compound 8, 3,5-di-tert-butyl-N-(1-((1,5-dimethyl-1H-pyrazol-3-yl)methylcarbamoyl)cyclohexyl)-4-hydroxybenzamide] | 100% | 99% | 6.89 | – | –
Cc1cc(CNC(=O)C2(NC(=O)c3cc(C(C)(C)C)c(O)c(C(C)(C)C)c3)CC2)nn1C [Compound 2, 3,5-di-tert-butyl-N-(1-((1,5-dimethyl-1H-pyrazol-3-yl)methylcarbamoyl)cyclopropyl)-4-hydroxybenzamide] | 99% | 104% | 5.85 | – | –
CC(C)(C)c1cc(C(=O)NC2(C(=O)N3CCCC3)CCCCC2)cc(C(C)(C)C)n1 [Compound 66, 2,6-di-tert-butyl-N-(1-(pyrrolidine-1-carbonyl)cyclohexyl)isonicotinamide] | – | – | 6.02 | – | –
CC(C)(C)NC(=O)C(C)(C)c1cc(C(=O)NC2(C(=O)NCc3ccccc3)CCCCC2)cc(C(C)(C)C(=O)NC(C)(C)C)c1 [Compound 63, 2,2′-(5-(1-(benzylcarbamoyl)cyclohexylcarbamoyl)-1,3-phenylene)bis(N-tert-butyl-2-methylpropanamide)] | 66.4% | 82% | – | – | –
CC(C)(C)c1cc(C(=O)NC2(C(=O)O)CCCCC2)cc(C(C)(C)C)c1 [Compound 34, 1-(3,5-di-tert-butylbenzamido)cyclohexanecarboxylic acid] | 68.2% | 82.3% | – | – | –

The next lines start with results.

inhibition at 10 µM (10 μM compound) | inhibition at 30 µM (30 μM compound) | pIC50 | Compound | Cav 2.2 Activity % Inh at 10 μM (10 μM compound) | Cav 2.2 Activity % Inh at 30 μM (30 μM compound)
90.8% | 92.4% | 7.49 | COc1ccc(CNC(=O)C2(NC(=O)c3cc(C(C)(C)C)c(OC)c(C(C)(C)C)c3)CCOCC2)cc1 [Compound 114, 4-(3,5-di-tert-butyl-4-methoxybenzamido)-N-(4-methoxybenzyl)tetrahydro-2H-pyran-4-carboxamide] | – | –
29.8% | 40% | 7.06 | COc1ccc(CNC(=O)C2(NC(=O)c3cc(C(C)(C)C)c(O)c(C(C)(C)C)c3)CC2)cc1 [Compound 109, 3,5-di-tert-butyl-4-hydroxy-N-(1-(4-methoxybenzylcarbamoyl)cyclopropyl)benzamide] | – | –
100% | 101% | 6.92 | COc1ccc(CNC(=O)C2(NC(=O)c3cc(C(C)(C)C)c(OC)c(C(C)(C)C)c3)CC2)cc1 [Compound 110, 3,5-di-tert-butyl-4-methoxy-N-(1-(4-methoxybenzylcarbamoyl)cyclopropyl)benzamide] | – | –
79.5% | 88.6% | 7.61 | Cc1cc(CNC(=O)C2(NC(=O)c3cc(C(C)(C)C)nc(C(C)(C)C)c3)CCCCC2)nn1C [Compound 78, 2,6-di-tert-butyl-N-(1-((1,5-dimethyl-1H-pyrazol-3-yl)methylcarbamoyl)cyclohexyl)isonicotinamide] | – | –
87.8% | 93.3% | 7.27 | Cc1cnc(CNC(=O)C2(NC(=O)c3cc(C(C)(C)C)nc(C(C)(C)C)c3)CCCCC2)cn1 [Compound 81, 2,6-di-tert-butyl-N-(1-((5-methylpyrazin-2-yl)methylcarbamoyl)cyclohexyl)isonicotinamide] | – | –
88.8% | 98% | 8.25 | COc1c(C(C)(C)C)cc(C(=O)NC2(C(=O)NCc3ccccc3)CCCCC2)cc1C(C)(C)C [Compound 32, N-(1-(benzylcarbamoyl)cyclohexyl)-3,5-di-tert-butyl-4-methoxybenzamide] | – | –
106% | 106% | 7.20 | Cc1cc(CNC(=O)C2(NC(=O)c3cc(C(C)(C)C)cc(C(C)(C)C)c3)CCCCC2)no1 [Compound 51, 3,5-di-tert-butyl-N-(1-((5-methylisoxazol-3-yl)methylcarbamoyl)cyclohexyl)benzamide] | – | –
98.4% | 94% | 7.19 | Cc1cc(CNC(=O)C2(NC(=O)c3cc(C(C)(C)C)cc(C(C)(C)C)c3)CCCCC2)nn1C [Compound 68, 3,5-di-tert-butyl-N-(1-((1,5-dimethyl-1H-pyrazol-3-yl)methylcarbamoyl)cyclohexyl)benzamide] | – | –
98.6% | 101% | 7.26 | Cc1cc(CNC(=O)C2(NC(=O)c3cc(C(C)(C)C)c(O)c(C(C)(C)C)c3)CCCCC2)no1 [Compound 12, 3,5-di-tert-butyl-4-hydroxy-N-(1-((5-methylisoxazol-3-yl)methylcarbamoyl)cyclohexyl)benzamide] | – | –
98.4% | 104% | 6.98 | CC(C)(C)c1cc(C(=O)NC2(C(=O)NCc3nccs3)CCCCC2)cc(C(C)(C)C)n1 [Compound 80, 2,6-di-tert-butyl-N-(1-(thiazol-2-ylmethylcarbamoyl)cyclohexyl)isonicotinamide] | – | –
